These results are taken from ChEMBL document CHEMBL1255270, “Relationship between antibiotic use and incidence of MexXY-OprM overproducers among clinical isolates of Pseudomonas aeruginosa” (2008).

≈ marks a conversion by molar mass, not a printed value.

Type in all cases: functional
For assay [1], the system named is Pseudomonas aeruginosa. The assay is described as follows: Antimicrobial activity against mexXY-OprM-overproducing Pseudomonas aeruginosa PAO1.
Assay [2] has as its system Pseudomonas aeruginosa. As to the kind of experiment: Antimicrobial activity against MexXY-OprM-overproducing Pseudomonas aeruginosa PAO1 harboring MexY and MexZ mutant gene selected after 4 ug/ml of cefepime exposure.
Assay [3] has as its system Pseudomonas aeruginosa. As to the kind of experiment: Antimicrobial activity against MexXY-OprM-overproducing Pseudomonas aeruginosa PAO1 harboring MexY agrW mutant and MexZ mutant gene selected after 8 ug/ml of amikacin exposure.
In assay [4] the test system is Pseudomonas aeruginosa. The assay is described as follows: Antimicrobial activity against MexXY-OprM-overproducing Pseudomonas aeruginosa PAO1 harboring MexY agrW mutant and MexZ mutant gene selected after 0.25 ug/ml of ciprofloxacin exposure.
The subject of assay [5] is Pseudomonas aeruginosa. As to the kind of experiment: Antimicrobial activity against MexXY-OprM-overproducing Pseudomonas aeruginosa PAO1 harboring MexY agrZ mutant and MexZ mutant gene selected after 4ug/ml of gentamycin exposure.
The subject of assay [6] is Pseudomonas aeruginosa. As to the kind of experiment: Antimicrobial activity against MexXY-OprM-overproducing Pseudomonas aeruginosa PAO1 harboring MexY and MexZ mutant gene selected after 8 ug/ml of amikacin exposure.
Assay [7] concerns Pseudomonas aeruginosa. As to the kind of experiment: Antimicrobial activity against MexXY-OprM-overproducing Pseudomonas aeruginosa PAO1 harboring MexY agrW mutant and MexZ mutant gene selected after 1 ug/ml of oflaxacin exposure.
The test system of assay [8] is Pseudomonas aeruginosa. As to the kind of experiment: Antimicrobial activity against MexXY-OprM-overproducing Pseudomonas aeruginosa PAO1 harboring MexY agrZ mutant and MexZ mutant gene selected after 1 ug/ml of Norfloxacin exposure.
Assay [9] concerns Pseudomonas aeruginosa. The assay is described as follows: Antimicrobial activity against MexXY-OprM-overproducing Pseudomonas aeruginosa PAO1 harboring MexY agrZ mutant and MexZ mutant gene selected after 1 ug/ml of tobramycin exposure.
Assay [10] deals with Pseudomonas aeruginosa. The assay is described as follows: Antimicrobial activity against MexXY-OprM-overproducing Pseudomonas aeruginosa PAO1 harboring MexY and MexZ mutant gene selected after 0.25 ug/ml of ciprofloxacin exposure.
Assay [11] relates to Pseudomonas aeruginosa. As to the kind of experiment: Antimicrobial activity against MexXY-OprM-overproducing Pseudomonas aeruginosa PAO1 harboring MexY agrW mutant and MexZ mutant gene selected after 4 ug/ml of cefepime exposure.
Assay [12] concerns Pseudomonas aeruginosa. The assay is described as follows: Antimicrobial activity against mexXY-OprM-overproducing Pseudomonas aeruginosa clinical isolate.
Assay [13] relates to Pseudomonas aeruginosa. The assay is described as follows: Antimicrobial activity against mexXY-OprM-overproducing Pseudomonas aeruginosa isolate PA/XY assessed as zone of inhibition by disk diffusion method. A general note: A growth-free zone around the sample is the usual read-out of agar diffusion tests.

With `CO/N=C(\C(=O)N[C@@H]1C(=O)N2C(C(=O)[O-])=C(C[N+]3(C)CCCC3)CS[C@H]12)c1csc(N)n1`, the MIC in the assay on Pseudomonas aeruginosa [1] was determined as 2 µg/mL (≈ 4.16 µM); with Pseudomonas aeruginosa [2] it was 4 µg/mL; in the assay on Pseudomonas aeruginosa [3], 4 µg/mL; in the assay with Pseudomonas aeruginosa [4] it was 4 µg/mL; in the assay on Pseudomonas aeruginosa [5], 4 µg/mL; in the assay on Pseudomonas aeruginosa [6], 4 µg/mL. Moreover, the MIC in the assay with Pseudomonas aeruginosa [7], with Pseudomonas aeruginosa [8], in the assay with Pseudomonas aeruginosa [9], in the assay with Pseudomonas aeruginosa [10] and with Pseudomonas aeruginosa [11] was 4 µg/mL in each case.

Consider `NCC[C@H](O)C(=O)N[C@@H]1C[C@H](N)[C@@H](O[C@H]2O[C@H](CN)[C@@H](O)[C@H](O)[C@H]2O)[C@H](O)[C@H]1O[C@H]1O[C@H](CO)[C@@H](O)[C@H](N)[C@H]1O` [AMIKACIN], for which the MIC came to 4 µg/mL (≈ 6.83 µM) in the assay with Pseudomonas aeruginosa [1]; 8 µg/mL in the assay with Pseudomonas aeruginosa [2]; 8 µg/mL in the assay on Pseudomonas aeruginosa [3]; 4 µg/mL (≈ 6.83 µM) against Pseudomonas aeruginosa [12]; 8 µg/mL in the assay with Pseudomonas aeruginosa [4]; 8 µg/mL with Pseudomonas aeruginosa [5]. Also, the MIC with Pseudomonas aeruginosa [6], in the assay on Pseudomonas aeruginosa [7], in the assay on Pseudomonas aeruginosa [8], in the assay with Pseudomonas aeruginosa [9], in the assay with Pseudomonas aeruginosa [10] and with Pseudomonas aeruginosa [11] was 8 µg/mL each time. Besides, in the assay on Pseudomonas aeruginosa [13], the “inhibition zone (IZ)” value is less than 20 mm.

`O=C(O)c1cn(C2CC2)c2cc(N3CCNCC3)c(F)cc2c1=O` [CIPROFLOXACIN] registered a minimum inhibitory concentration (MIC) against Pseudomonas aeruginosa [1] of 0.12 µg/mL (≈ 0.362 µM).

Take `NC[C@H]1O[C@H](O[C@H]2[C@H](O)[C@@H](O[C@H]3O[C@H](CO)[C@@H](O)[C@H](N)[C@H]3O)[C@H](N)C[C@@H]2N)[C@H](N)C[C@@H]1O` [TOBRAMYCIN]: the MIC with Pseudomonas aeruginosa [1] is 1 µg/mL (≈ 2.14 µM); in the assay on Pseudomonas aeruginosa [2], 2 µg/mL; in the assay on Pseudomonas aeruginosa [3] it was 2 µg/mL; in the assay with Pseudomonas aeruginosa [12], 1 µg/mL (≈ 2.14 µM); in the assay with Pseudomonas aeruginosa [4], 2 µg/mL; in the assay on Pseudomonas aeruginosa [5], 2 µg/mL. Besides, the MIC in the assay with Pseudomonas aeruginosa [6], with Pseudomonas aeruginosa [7], in the assay on Pseudomonas aeruginosa [8], in the assay with Pseudomonas aeruginosa [9], in the assay with Pseudomonas aeruginosa [10] and in the assay on Pseudomonas aeruginosa [11] was 2 µg/mL each time. In addition, in the assay on Pseudomonas aeruginosa [13], the “inhibition zone (IZ)” value is on record as less than 20 mm.

As to GENTAMICIN, the MIC against Pseudomonas aeruginosa [1] was found to be 4 µg/mL; with Pseudomonas aeruginosa [2], 8 µg/mL; in the assay with Pseudomonas aeruginosa [3], 8 µg/mL; with Pseudomonas aeruginosa [12], 2 µg/mL; in the assay on Pseudomonas aeruginosa [4], 8 µg/mL; in the assay with Pseudomonas aeruginosa [5], 8 µg/mL. The MIC with Pseudomonas aeruginosa [6], with Pseudomonas aeruginosa [7], with Pseudomonas aeruginosa [8], with Pseudomonas aeruginosa [9], in the assay on Pseudomonas aeruginosa [10] and in the assay on Pseudomonas aeruginosa [11] was 8 µg/mL each time. In the assay on Pseudomonas aeruginosa [13], the inhibition zone (IZ) is less than 20 mm.

By MIC is commonly meant the lowest concentration that inhibits growth of the organism.
